Experimental data taken from publication PMC11111404, “Discovery of potent small-molecule inhibitors of lipoprotein(a) formation” (Nature, 2024).
Where “and” joins values, the source holds several entries; their conditions need not be identical. Identical values can stand only once. Like-named read-outs stand apart in the source and are kept apart here. Marks after values point to notes of the source that are not given here.

Tests used:
apo(a) KIV2 = target: T1, apo(a) KIV2 (Homo sapiens, UniProt P08519); experiment: ITC binding to apo(a) KIV2; details: ITC, in words
T1 construct: made in house
T1 sequence (P08519 141-219 limits assumed): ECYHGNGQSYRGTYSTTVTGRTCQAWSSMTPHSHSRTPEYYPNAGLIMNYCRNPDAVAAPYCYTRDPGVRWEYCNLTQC
Protocol: The nucleotide sequence encoding the human LPA gene (NP_005568.2) was inserted into a mammalian expression vector containing a cytomegalovirus promoter. Protein expression was performed by transient transfection of human embryonic kidney 293 (HEK293) cells cultured in serum-free medium. The culture medium was collected five days after transfection and human apo(a) protein was purified using L-lysine affinity chromatography. Nucleotide sequences encoding various KIV domains of human apo(a) and human and rat plasminogen were inserted into a pET21a Escherichia coli expression vector. Bacterial BL21(DE3) was used as the expression host, and the induction of protein expression was performed in 2× TY medium with 1 mM isopropyl β-D-1-thiogalactopyranoside at 37 °C for 5 h. Cells were collected and stored at –80 °C for subsequent protein purification and refolding. The frozen cell pellets were lysed and inclusion bodies were purified. The protein refolding was performed using the rapid-dilution method, and the refolded proteins were further purified by size-exclusion chromatography. All protein concentrations were determined by A280.
Experiments were performed on a MicroCal Auto-iTC200 titration calorimeter (Malvern Panalytical), with a cell volume of 200 μl and a 40-μl microsyringe. Experiments were performed at 25 °C while stirring at 750 rpm in ITC buffer (50 mM phosphate buffer at pH 8.0). The microsyringe was loaded with a solution of the respective compounds, with the concentration measured by quantitative nuclear magnetic resonance, and was inserted into the calorimetric cell prefilled with the respective recombinant proteins of known concentration in ITC buffer. The system was equilibrated to 25 °C and an extra delay of 60 s was applied. The first titrations were performed using an initial control injection of 0.5 μl, followed by 18 identical injections of 2 μl, with a duration of 4 s per injection and 150-s intervals between injections. The second titration was performed over the first titration without cleaning the cell and was carried out with continuous injections as an automation method in a MicroCal Auto-iTC200. The second titrations were performed using 19 identical injections of 2 μl, with a duration of 4 s per injection and 150-s injection intervals. The data were corrected for ligand heats of dilution and were deconvoluted using MicroCal PEAQ-ITC Analysis Software to yield the enthalpy of binding (ΔH) and the binding constant (K). Thermodynamic parameters were calculated using the basic equation of thermodynamics (ΔG = ΔH – TΔS = –RTlnKd), where ΔG, ΔH and ΔS are the changes in free energy, enthalpy and entropy of binding, respectively; Kd is the equilibrium dissociation constant; T is the absolute temperature (kelvins); and R is the gas constant (1.987 cal mol^−1 K^−^1). A single-binding-site model was used in MicroCal PEAQ-ITC Analysis Software v.0.9.

Lp(a) = Lp(a) levels in cynomolgus monkeys; format: in vivo, cynomolgus monkey (Macaca fascicularis); parameters: key to Mean_pCFB_vs_Veh / Mean_pCFB_vs_Veh (Lp(a)): % change from pre-dose, treated group compared with vehicle; key to Mean_pCFB / Mean_pCFB (Lp(a)): % change in Lp(a) from before dosing; Lp(a): unit not given here; details: for Mean_pCFB / Mean_pCFB_vs_Veh: Lp(a); for Mean_pCFB / Mean_pCFB_vs_Veh / Lp(a) / pCFB (Lp(a) pct change from baseline): female cynomolgus monkeys
Protocol: Female or male Chinese Macaca fascicularis cynomolgus monkeys (as described in the figure legends) of unspecified ages with body weight ranging from 2.0 kg to 5.0 kg were housed in cages with a standard light cycle (12-h light, 12-h dark) at room temperature (20–26 °C); the relative humidity ranged from 30% to 70%. Monkeys were given fruits, vegetables or dietary enrichment as a form of environmental enrichment, and various cage enrichment devices. Purina Lab diet 5048C was provided BID and individual monkeys were identified by cage card. The monkeys were randomized to treatment groups by body weight and baseline plasma Lp(a) concentration, as determined by a commercially available Randox assay (Randox LP2757), using a BRAT for the study. In an example cynomolgus monkey study in which 39 monkeys were prescreened for baseline Lp(a) levels, the average Lp(a) level was 350 ± 57 µg ml^−1 (range 53–1,667 µg ml^−1). Monkeys were dosed orally with vehicle (purified water) or compounds QD or BID for 14 days, at dose levels and frequencies as previously described for each compound. Plasma samples were collected on days before dosing to establish baseline Lp(a) and after the morning dose during the study. Lp(a) levels were measured by an investigator who was blinded to group allocation using the Randox assay, and were quantified relative to the calibrator series (Randox LP3404). Data were analysed in GraphPad Prism v.9.5.1. The Lp(a) percentage change from before dosing in non-human primates was analysed by repeated measures ANOVA in SAS v.9.4 (SAS). At each time point, the Lp(a) percentage change for each treated group was compared with vehicle by the Bonferroni method.

[1] = Pharmacokinetics in monkey plasma after oral dosing; format: in vivo; details: cynomolgus; for Cmax / Tmax: day 14; for AUC(0-t): day 14, read-out: AUC(0–12 h)
[2] = oral BID, day 1, individual animal
[3] = oral BID, day 3, individual animal
[4] = oral BID, day 5, individual animal
[5] = oral BID, day 9, individual animal
[6] = oral BID, day 14, individual animal
[7] = oral QD, day 1, individual animal
[8] = oral QD, day 3, individual animal
[9] = oral QD, day 5, individual animal
[10] = oral QD, day 9, individual animal
[11] = oral QD, day 14, individual animal

Q: Which “binding to KIV2” value (apo(a) KIV2) does the source give for Cl.O=C(O)[C@@H](Cc1ccccc1)[C@H]1CCNC1 [LSN3353871] here?
A: does not bind

Q: And the Mean_pCFB (Lp(a); BID, day 1)?
A: -17.16

Q: And the Mean_pCFB_vs_Veh (Lp(a); BID, day 1)?
A: 1.08

Q: And the Mean_pCFB (Lp(a); BID, day 3)?
A: -35.64

Q: And the Mean_pCFB_vs_Veh (Lp(a); BID, day 3)?
A: -13.27

Q: What about the Mean_pCFB (Lp(a); BID, day 5) of the same compound?
A: -39.65

Q: What about the Mean_pCFB_vs_Veh (Lp(a); BID, day 5) of the same compound?
A: -25.29

Q: And the Mean_pCFB (Lp(a); BID, day 9)?
A: -24.57

Q: What about the Mean_pCFB_vs_Veh (Lp(a); BID, day 9) of the same compound?
A: -29.9

Q: What about the Mean_pCFB (Lp(a); BID, day 14) of the same compound?
A: -34.78

Q: And the Mean_pCFB_vs_Veh (Lp(a); BID, day 14)?
A: -34.93

Q: What about the Mean_pCFB (Lp(a); QD, day 1) of the same compound?
A: -15.58

Q: And the Mean_pCFB_vs_Veh (Lp(a); QD, day 1)?
A: 2.65

Q: And the Mean_pCFB (Lp(a); QD, day 3)?
A: -24.41

Q: What about the Mean_pCFB_vs_Veh (Lp(a); QD, day 3) of the same compound?
A: -2.03

Q: And the Mean_pCFB (Lp(a); QD, day 5)?
A: -27.62

Q: And the Mean_pCFB_vs_Veh (Lp(a); QD, day 5)?
A: -13.26

Q: And the Mean_pCFB (Lp(a); QD, day 9)?
A: -15.91

Q: And the Mean_pCFB_vs_Veh (Lp(a); QD, day 9)?
A: -21.23

Q: What about the Mean_pCFB (Lp(a); QD, day 14) of the same compound?
A: -9.51

Q: And the Mean_pCFB_vs_Veh (Lp(a); QD, day 14)?
A: -9.65

Q: And the “decrease in Lp(a) levels” value (Lp(a); cynomolgus monkeys, 20 mg kg^−1 BID for two weeks)?
A: up to 40%

Q: What about the “%Lp(a) max decrease (dose, mg/kg)” value (Lp(a); cynomolgus monkeys, 20 mg/kg BID, 14 days dosing) of the same compound?
A: 40 (20)^b %

Q: And the “Lp(a)” value (Lp(a); BID group, day -1 (before dosing), individual animal)?
A: 62.7685 and 48.163 and 60.7172 and 13.635 and 18.9902 and 51.942 and 61.5505 and 31.6327

Q: And the “Lp(a)” value (Lp(a); BID group, day -14 (before dosing), individual animal)?
A: 63.283 and 50.674 and 55.2892 and 13.5483 and 15.2575 and 51.2555 and 54.086 and 23.9562

Q: What about the “Lp(a)” value (Lp(a); QD group, day -1 (before dosing), individual animal) of the same compound?
A: 64.272 and 49.5175 and 60.6415 and 25.2005

Q: And the “Lp(a)” value (Lp(a); QD group, day -14 (before dosing), individual animal)?
A: 61.406 and 37.9278 and 38.7218 and 35.5823

Q: And the “Lp(a)” value (Lp(a); [2])?
A: 52.535 and 44.0168 and 46.6457 and 12.9142 and 11.7935 and 42.9437 and 23.7942 and 44.7918

Q: And the “pCFB (Lp(a) pct change from baseline)” value (Lp(a); [2])?
A: -10.9306 and -19.5807 and -4.985 and -31.1282 and -18.9955 and -14.3923 and -20.5861 and -16.6452

Q: What about the “Lp(a)” value (Lp(a); [3]) of the same compound?
A: 45.0043 and 39.4997 and 31.6748 and 8.965 and 6.9825 and 34.2685 and 20.4107 and 36.1685

Q: And the “pCFB (Lp(a) pct change from baseline)” value (Lp(a); [3])?
A: -20.0709 and -45.3913 and -34.0392 and -59.2235 and -35.3595 and -26.5656 and -35.8749 and -28.5937

Q: What about the “Lp(a)” value (Lp(a); [4]) of the same compound?
A: 38.5745 and 31.448 and 28.6503 and 10.7198 and 9.08 and 32.1393 and 18.0332

Q: What about the “pCFB (Lp(a) pct change from baseline)” value (Lp(a); [4]) of the same compound?
A: -38.7957 and -36.3639 and -50.6056 and -21.1294 and -46.9735 and -39.3758 and -35.1194 and -48.839

Q: What about the “Lp(a)” value (Lp(a); [5]) of the same compound?
A: 44.675 and 39.068 and 37.0712 and 13.4855 and 14.776 and 41.9348 and 17.9605

Q: And the “pCFB (Lp(a) pct change from baseline)” value (Lp(a); [5])?
A: -29.1163 and -20.9446 and -36.0875 and -0.7811 and -13.7109 and -20.8987 and -35.3809 and -39.6451

Q: And the “Lp(a)” value (Lp(a); [6])?
A: 55.7647 and 33.5363 and 40.4025 and 9.657 and 7.2775 and 34.1767 and 13.5137

Q: And the “pCFB (Lp(a) pct change from baseline)” value (Lp(a); [6])?
A: -11.5208 and -32.1383 and -30.3443 and -28.9479 and -57.5008 and -35.5326 and -51.38 and -30.8982

Q: And the “Lp(a)” value (Lp(a); [7])?
A: 48.1358 and 37.1353 and 55.4155 and 18.3242

Q: And the “pCFB (Lp(a) pct change from baseline)” value (Lp(a); [7])?
A: 11.5412 and -39.7058 and -6.086 and -13.177 and -16.5026 and -22.2746 and -23.3982 and -15.0662

Q: What about the “Lp(a)” value (Lp(a); [8]) of the same compound?
A: 39.5063 and 29.6812 and 40.6228 and 20.1472

Q: What about the “pCFB (Lp(a) pct change from baseline)” value (Lp(a); [8]) of the same compound?
A: -18.2339 and -33.7073 and 11.9206 and -19.0783 and -28.1629 and -38.7431 and -37.1309 and -32.1149

Q: What about the “Lp(a)” value (Lp(a); [9]) of the same compound?
A: 37.3218 and 25.577 and 40.148 and 26.2523

Q: And the “pCFB (Lp(a) pct change from baseline)” value (Lp(a); [9])?
A: -19.1894 and -13.6191 and -4.001 and -34.7759 and -8.718 and -58.5688 and -40.6072 and -41.5017

Q: What about the “Lp(a)” value (Lp(a); [10]) of the same compound?
A: 56.5955 and 31.4135 and 43.3325 and 24.1392

Q: What about the “pCFB (Lp(a) pct change from baseline)” value (Lp(a); [10]) of the same compound?
A: -12.7796 and -20.572 and 2.106 and -9.614 and -0.2146 and -48.0895 and -9.936 and -28.1528

Q: What about the “Lp(a)” value (Lp(a); [11]) of the same compound?
A: 39.3452 and 48.5785 and 37.4098 and 37.2848

Q: And the “pCFB (Lp(a) pct change from baseline)” value (Lp(a); [11])?
A: -24.9526 and -29.9842 and 41.651 and -25.3919 and 24.0547 and -24.319 and -22.6937 and -14.4384

Q: What about the Cmax ([1]; oral 20 mg/kg) of the same compound?
A: 22.3 µM

Q: What about the Tmax ([1]; oral 20 mg/kg) of the same compound?
A: 1.5 ± 0.5 h

Q: And the AUC(0-t) ([1]; oral 20 mg/kg)?
A: 136 µM·h

Q: What about the Cmax ([1]; oral 40 mg/kg) of the same compound?
A: 29.6 µM

Q: What about the Tmax ([1]; oral 40 mg/kg) of the same compound?
A: 1.5 ± 0.5 h

Q: What about the AUC(0-t) ([1]; oral 40 mg/kg) of the same compound?
A: 210 µM·h
